Laboratory results as given in PubChem BioAssay AID2060338 (Molecular Pharmacology Branch, DTP, NCI, 2025).
“And” between values parts separate entries of the source, which are not always exact repeats. Identical values can stand only once.

Tested on: 556581-035-R-J1-PDC spheroids with HUVEC/MSC, viability
Assay: Anticancer human tumor 556581-035-R-J1-PDC patient-derived ovarian carcinoma cell line growth inhibition [IpAb]
Conditions: for viability, T/C: stronger effect = lower value
Outline: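 Combinations with ipatasertib or abemaciclib were tested on tumour spheroids holding HUVEC (25%) and MSC (15%) alongside 60% malignant cells. Top concentration was at or near clinical Cmax (10 microM if undefined), descending in half-log steps.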

[1] = curve of first compound, second compound 0.01 µM
[2] = curve of first compound, second compound 0.0316 µM
[3] = curve of first compound, second compound 0.1 µM
[4] = curve of first compound, second compound 0.316 µM
[5] = curve of first compound, second compound 1 µM
[6] = second compound 0.1 µM, first compound 0.0316 µM
[7] = second compound 0.1 µM, first compound 0.1 µM
[8] = second compound 0.316 µM, first compound 0.0316 µM
[9] = second compound 0.316 µM, first compound 0.1 µM
[10] = second compound 1 µM, first compound 0.0316 µM
[11] = second compound 1 µM, first compound 0.1 µM
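Also: spheroids exposed to compounds for 7 days before readout.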

Compound: Cn1ncnc1[C@H]1c2n[nH]c(=O)c3cc(F)cc(c23)N[C@@H]1c1ccc(F)cc1 + CCN1CCN(Cc2ccc(Nc3ncc(F)c(-c4cc(F)c5nc(C)n(C(C)C)c5c4)n3)nc2)CC1
- IC50 [1]: > 100 nM
- IC50 [2]: > 100 nM
- IC50 [3]: > 100 nM
- IC50 [4]: 83.8 nM
- IC50 [5]: 1.65 nM
- viability, T/C (second compound 0.01 µM, first compound 0.000316 µM): 80.6%
- viability, T/C (second compound 0.01 µM, first compound 0.001 µM): 107%
- viability, T/C (second compound 0.01 µM, first compound 0.00316 µM): 80.9%
- viability, T/C (second compound 0.01 µM, first compound 0.01 µM): 83.6%
- viability, T/C (second compound 0.01 µM, first compound 0.0316 µM): 84.1%
- viability, T/C (second compound 0.01 µM, first compound 0.1 µM): 63.7%
- viability, T/C (second compound 0.0316 µM, first compound 0.000316 µM): 84.9%
- viability, T/C (second compound 0.0316 µM, first compound 0.001 µM): 82.8%
- viability, T/C (second compound 0.0316 µM, first compound 0.00316 µM): 90.6%
- viability, T/C (second compound 0.0316 µM, first compound 0.01 µM): 83.2%
- viability, T/C (second compound 0.0316 µM, first compound 0.0316 µM): 61.3%
- viability, T/C (second compound 0.0316 µM, first compound 0.1 µM): 60%
- viability, T/C (second compound 0.1 µM, first compound 0.000316 µM): 67.7%
- viability, T/C (second compound 0.1 µM, first compound 0.001 µM): 81.3%
- viability, T/C (second compound 0.1 µM, first compound 0.00316 µM): 84.9%
- viability, T/C (second compound 0.1 µM, first compound 0.01 µM): 83.2%
- viability, T/C [6]: 63.1%
- viability, T/C [7]: 55.2%
- viability, T/C (second compound 0.316 µM, first compound 0.000316 µM): 70.8%
- viability, T/C (second compound 0.316 µM, first compound 0.001 µM): 77.8%
- viability, T/C (second compound 0.316 µM, first compound 0.00316 µM): 69.8%
- viability, T/C (second compound 0.316 µM, first compound 0.01 µM): 79.1%
- viability, T/C [8]: 59.2%
- viability, T/C [9]: 48.3%
- viability, T/C (second compound 1 µM, first compound 0.000316 µM): 51.5%
- viability, T/C (second compound 1 µM, first compound 0.001 µM): 59.2%
- viability, T/C (second compound 1 µM, first compound 0.00316 µM): 43.1%
- viability, T/C (second compound 1 µM, first compound 0.01 µM): 37.3%
- viability, T/C [10]: 41.9%
- viability, T/C [11]: 44.4%

Compound: CC1(C)CCC(CN2CCN(c3ccc(C(=O)NS(=O)(=O)c4ccc(NCC5CCOCC5)c([N+](=O)[O-])c4)c(Oc4cnc5[nH]ccc5c4)c3)CC2)=C(c2ccc(Cl)cc2)C1 + CC(C)NCC(C(=O)N1CCN(c2ncnc3c2C(C)CC3O)CC1)c1ccc(Cl)cc1
- IC50 [3]: 6750 nM
- IC50 [4]: 5540 nM
- IC50 [5]: 3810 nM
- IC50 (curve of first compound, second compound 3.16 µM): 3550 nM
- IC50 (curve of first compound, second compound 10 µM): < 31.6 nM
- viability, T/C [6]: 101%
- viability, T/C [7]: 90.5%
- viability, T/C (second compound 0.1 µM, first compound 0.316 µM): 87.8%
- viability, T/C (second compound 0.1 µM, first compound 1 µM): 104%
- viability, T/C (second compound 0.1 µM, first compound 3.16 µM): 94.1%
- viability, T/C (second compound 0.1 µM, first compound 10 µM): 27.1%
- viability, T/C [8]: 87.4%
- viability, T/C [9]: 76.7%
- viability, T/C (second compound 0.316 µM, first compound 0.316 µM): 87.3%
- viability, T/C (second compound 0.316 µM, first compound 1 µM): 76.1%
- viability, T/C (second compound 0.316 µM, first compound 3.16 µM): 75%
- viability, T/C (second compound 0.316 µM, first compound 10 µM): 24%
- viability, T/C [10]: 71.6%
- viability, T/C [11]: 76%
- viability, T/C (second compound 1 µM, first compound 0.316 µM): 66.2%
- viability, T/C (second compound 1 µM, first compound 1 µM): 64.8%
- viability, T/C (second compound 1 µM, first compound 3.16 µM): 58.1%
- viability, T/C (second compound 1 µM, first compound 10 µM): 18.2%
- viability, T/C (second compound 3.16 µM, first compound 0.0316 µM): 57.2%
- viability, T/C (second compound 3.16 µM, first compound 0.1 µM): 62.3%
- viability, T/C (second compound 3.16 µM, first compound 0.316 µM): 58.4%
- viability, T/C (second compound 3.16 µM, first compound 1 µM): 51.7%
- viability, T/C (second compound 3.16 µM, first compound 3.16 µM): 54.4%
- viability, T/C (second compound 3.16 µM, first compound 10 µM): 17.7%
- viability, T/C (second compound 10 µM, first compound 0.0316 µM): 47.7%
- viability, T/C (second compound 10 µM, first compound 0.1 µM): 44.6%
- viability, T/C (second compound 10 µM, first compound 0.316 µM): 44.5%
- viability, T/C (second compound 10 µM, first compound 1 µM): 48.1%
- viability, T/C (second compound 10 µM, first compound 3.16 µM): 42.7%
- viability, T/C (second compound 10 µM, first compound 10 µM): 4.35%

Compound: CC(C)(C)c1cnc(CSc2cnc(NC(=O)C3CCNCC3)s2)o1 + CCN1CCN(Cc2ccc(Nc3ncc(F)c(-c4cc(F)c5nc(C)n(C(C)C)c5c4)n3)nc2)CC1
- IC50 [1]: 154 nM
- IC50 [2]: 114 nM
- IC50 [3]: 67.8 nM
- IC50 [4]: 45.4 nM
- IC50 [5]: 13.1 nM
- viability, T/C (second compound 0.01 µM, first compound 0.00949 µM): 103%
- viability, T/C (second compound 0.01 µM, first compound 0.03 µM): 122%
- viability, T/C (second compound 0.01 µM, first compound 0.0949 µM): 84.5%
- viability, T/C (second compound 0.01 µM, first compound 0.3 µM): 2.06%
- viability, T/C (second compound 0.01 µM, first compound 0.949 µM): 2.48%
- viability, T/C (second compound 0.01 µM, first compound 3 µM): 2.1%
- viability, T/C (second compound 0.0316 µM, first compound 0.00949 µM): 115%
- viability, T/C (second compound 0.0316 µM, first compound 0.03 µM): 103%
- viability, T/C (second compound 0.0316 µM, first compound 0.0949 µM): 59.2%
- viability, T/C (second compound 0.0316 µM, first compound 0.3 µM): 5.51%
- viability, T/C (second compound 0.0316 µM, first compound 0.949 µM): 1.33%
- viability, T/C (second compound 0.0316 µM, first compound 3 µM): 0.97%
- viability, T/C (second compound 0.1 µM, first compound 0.00949 µM): 93.8%
- viability, T/C (second compound 0.1 µM, first compound 0.03 µM): 93.9%
- viability, T/C (second compound 0.1 µM, first compound 0.0949 µM): 31.8%
- viability, T/C (second compound 0.1 µM, first compound 0.3 µM): 1.38%
- viability, T/C (second compound 0.1 µM, first compound 0.949 µM): 3.13%
- viability, T/C (second compound 0.1 µM, first compound 3 µM): 1.36%
- viability, T/C (second compound 0.316 µM, first compound 0.00949 µM): 83.5%
- viability, T/C (second compound 0.316 µM, first compound 0.03 µM): 73.7%
- viability, T/C (second compound 0.316 µM, first compound 0.0949 µM): 7.97%
- viability, T/C (second compound 0.316 µM, first compound 0.3 µM): 1.31%
- viability, T/C (second compound 0.316 µM, first compound 0.949 µM): 2.8%
- viability, T/C (second compound 0.316 µM, first compound 3 µM): 3.38%
- viability, T/C (second compound 1 µM, first compound 0.00949 µM): 55.7%
- viability, T/C (second compound 1 µM, first compound 0.03 µM): 35.4%
- viability, T/C (second compound 1 µM, first compound 0.0949 µM): 3.81%
- viability, T/C (second compound 1 µM, first compound 0.3 µM): 1.87%
- viability, T/C (second compound 1 µM, first compound 0.949 µM): 0.65%
- viability, T/C (second compound 1 µM, first compound 3 µM): 1.32%

Compound: CC(=O)c1c(C)c2cnc(Nc3ccc(N4CCNCC4)cn3)nc2n(C2CCCC2)c1=O
- viability, T/C (compound 0.000949 µM): 92.6% and 100%
- viability, T/C (compound 0.003 µM): 125% and 99.8%
- viability, T/C (compound 0.00949 µM): 91.4% and 106%
- viability, T/C (compound 0.03 µM): 106% and 104%
- viability, T/C (compound 0.0949 µM): 94.1% and 108%
- viability, T/C (compound 0.3 µM): 99.7% and 95.6%
- IC50 (curve of compound): > 300 nM
